Source: US8198292B2, “Vinpocetine and eburnamonine derivatives for promoting bone growth, treating renal damage and cancer, and devices thereof” (Osteogenex, Inc., priority 2008, dated 2012)
Counter-ions that a name gives are not always drawn.

Experiments:
Assay type in all cases: in vivo
C57BL/6 mice [1] = test: Serum osteocalcin (bone formation marker) by EIA Elisa, daily i.p. treatment for 30 days; details: for increase in osteocalcin serum levels: FIG. 4
Description: (§1) Four month old male C57BL/6 mice were treated daily with saline vehicle or the sclerostin inhibitor of eburnamonine phosphate at several doses (via i.p) for 30 days. Study endpoints included a biochemical marker of bone formation; osteocalcin, measured by EIA Elisa, and measurement of trabecular bone volume by mico-CT analysis on the proximal tibia and spine (lumbar 5). […] See also FIG. 3, showing increase in bone volume for the tibia: 5 mg/kg (D) and 0.33 mg/kg (E).

C57BL/6 mice [2] = test: Bone volume of the tibia by pQCT after IP treatment (procedure of Example 2); details: 10 mg/kg IP
Description: Four month old male C57BL/6 mice were treated daily with saline vehicle or the sclerostin inhibitor of eburnamonine phosphate at several doses (via i.p) for 30 days. […] See also FIG. 3, showing increase in bone volume for the tibia: 5 mg/kg (D) and 0.33 mg/kg (E). […] Using the procedure set forth in Example 2, vinpocetine citrate was investigated for bone growth.

C57BL/6 mice [3] = test: Trabecular bone volume of the proximal tibia by micro-CT, daily i.p. treatment for 30 days; details: for increase in tibia long bone bone-volume/total volume over baseline control: 30 days, micro-CT
Description: Using the assay described above and in Journal of Bone and Mineral Research 2006, 21(11), 1738-1749 (incorporated herein in its entirety), compounds of the present invention can be identified as promoting bone growth. For example, the mouse test animal is treated with a predetermined dose of a SOST antagonist candidate for a complete dosing schedule. A control mouse is treated with a control solution, preferably a non-irritating buffer solution or other carrier. Once the dosing schedule has been completed, both test and control animals are examined with sacrifice using micro-CT to determine the quantity of bone formation present.
as §1

C57BL/6 mice [4] = test: Bone volume of the spine (lumbar 5) by micro-CT, daily i.p. treatment for 30 days; details: i.p. daily 30 days, dose not stated
Description: as §1

SMILES	increase in osteocalcin serum levels (C57BL/6 mice [1]; 10 mg/kg, over baseline) [%]	increase in bone volume of the tibia (pQCT) (C57BL/6 mice [2]) [%]	increase in tibia long bone bone-volume/total volume over baseline control (C57BL/6 mice [3]; FIG. 1 (B), 5 mg/kg i.p. daily) [%]	increase in tibia long bone bone-volume/total volume over baseline control (C57BL/6 mice [3]; FIG. 1 (C), 1 mg/kg i.p. daily) [%]	increase in tibia long bone bone-volume/total volume compared to baseline controls (C57BL/6 mice [3]; FIG. 3 (D), 5 mg/kg) [%]	increase in tibia long bone bone-volume/total volume compared to baseline controls (C57BL/6 mice [3]; FIG. 3 (E), 0.33 mg/kg) [%]	percent change in serum osteocalcin increase versus saline controls (C57BL/6 mice [1]; FIG. 2, 5 mg/kg i.p. daily, 30 days, mice) [%]	increase in osteocalcin serum levels (C57BL/6 mice [1]; 0.33 mg/kg, mice) [%]	increase in bone volume of lumbar 5 (U-CT) (C57BL/6 mice [4]) [%]
CCOC(=O)C1=CC2(CC)CCCN3CCc4c(n1c1ccccc41)C32 (stereo not drawn) [vinpocetine citrate]	62	8	–	–	–	–	–	–	–
CCC12CCCN3CCc4c(n(c5ccccc45)C(=O)C1)C32 (stereo not drawn) [eburnamonine phosphate]	–	–	17	10	9	17	35	39	52
